The results in this text go back to ChEMBL document CHEMBL2384984, “Multivalent presentation of a hydrolytically stable GM(3) lactone mimetic as modulator of melanoma cells motility and adhesion” (2013).

Activity calls are given as the source filed them. No cut-off for these calls is given here.

In general, inhibition refers to the percentage by which the read-out fell short of the control.

Assay [1] concerns A-375. The assay can be described thus: Cytotoxicity against human A375 cells at 10 to 50 uM after 24 hrs by crystal-violet staining-based method. It counts as functional, cell-based.
For assay [2], the system named is A-375. The assay can be described thus: Inhibition of human A375 cell adhesion to fibronectin-coated dish at 50 uM incubated for 30 mins measured after 1 to 4 hrs by crystal violet staining-based method relative to control. It is filed as functional.
In assay [3] the test system is A-375. The assay can be described thus: Induction of anoikis in human A375 cells at 50 uM after 24 hrs by FITC-labeled Annexin V-propidium iodide staining-based FACS flow cytometric analysis (reference value: 15%). It counts as functional. Background: In flow cytometry, cells or beads pass a laser one at a time.
In assay [4] the target is RAC-alpha serine/threonine-protein kinase (Homo sapiens) (UniProt P31749). The assay can be described thus: Inhibition of AKT phosphorylation in human A375 cells at 50 uM after 24 hrs by Western blotting analysis. It counts as cell-based. The note with it: A-375. (In western blotting, separated proteins are transferred to a membrane and probed.)
For assay [5], the system named is A-375. The assay can be described thus: Inhibition of serum-starved human A375 cell migration at 50 uM after 24 hrs relative to control. It is filed as functional. Particulars: A-375, 24 h.

RAC-alpha serine/threonine-protein kinase (Homo sapiens), sequence (P31749 whole entry): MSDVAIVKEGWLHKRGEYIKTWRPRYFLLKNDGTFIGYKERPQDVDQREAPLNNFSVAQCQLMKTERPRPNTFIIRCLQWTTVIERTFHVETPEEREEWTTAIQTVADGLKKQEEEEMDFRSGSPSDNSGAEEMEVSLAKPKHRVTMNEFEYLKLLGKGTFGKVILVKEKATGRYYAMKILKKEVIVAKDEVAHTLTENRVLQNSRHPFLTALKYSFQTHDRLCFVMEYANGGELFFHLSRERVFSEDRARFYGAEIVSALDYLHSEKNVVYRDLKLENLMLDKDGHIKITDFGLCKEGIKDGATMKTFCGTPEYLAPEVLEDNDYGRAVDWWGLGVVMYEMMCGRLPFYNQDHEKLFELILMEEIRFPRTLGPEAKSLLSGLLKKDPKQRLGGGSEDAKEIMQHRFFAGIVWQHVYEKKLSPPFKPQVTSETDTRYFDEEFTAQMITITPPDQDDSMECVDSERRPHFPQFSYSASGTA

As to `O=C(CCCCC(=O)NCCNC(=O)CCN(CCC(=O)NCCNC(=O)CCCCC(=O)NCCCCCCO[C@H]1O[C@H](CO)[C@H](O)C2=C1SC[C@]1(C[C@@H](O)[C@@H](O)[C@@H]([C@H](O)CO)O1)O2)CCN(CCC(=O)NCCNC(=O)CCCCC(=O)NCCCCCCO[C@H]1O[C@H](CO)[C@H](O)C2=C1SC[C@@]1(C[C@@H](O)[C@@H](O)[C@@H]([C@H](O)CO)O1)O2)CCC(=O)NCCNC(=O)CCCCC(=O)NCCCCCCO[C@H]1O[C@H](CO)[C@H](O)C2=C1SC[C@@]1(C[C@@H](O)[C@@H](O)[C@@H]([C@H](O)CO)O1)O2)NCCCCCCO[C@H]1O[C@H](CO)[C@H](O)C2=C1SC[C@]1(C[C@@H](O)[C@@H](O)[C@@H]([C@H](O)CO)O1)O2`, in the assay with A-375 [1], the outcome was inactive. In addition, the inhibition result with A-375 [2] was “inactive”.

`CC(C)(C)OC(=O)NCCN(CCC(=O)NCCNC(=O)CCCCC(=O)NCCCCCCO[C@H]1O[C@H](CO)[C@H](O)C2=C1SC[C@@]1(C[C@@H](O)[C@@H](O)[C@@H]([C@H](O)CO)O1)O2)CCC(=O)NCCNC(=O)CCCCC(=O)NCCCCCCO[C@H]1O[C@H](CO)[C@H](O)C2=C1SC[C@@]1(C[C@@H](O)[C@@H](O)[C@@H]([C@H](O)CO)O1)O2`: in the assay with A-375 [1], the result was inactive. The inhibition result in the assay with A-375 [2] is “inactive”.

Consider `CC(=O)OC[C@@H](OC(C)=O)[C@@H]1O[C@@]2(CSC3=C(O2)[C@@H](OC(C)=O)[C@@H](COC(C)=O)O[C@@H]3OCCCCCCNC(=O)CCCCC(=O)Oc2ccc([N+](=O)[O-])cc2)C[C@H](OC(C)=O)[C@@H]1OC(C)=O`, for which the inhibition result in the assay with A-375 [2] is “inactive”.

Take `CO[C@H]1O[C@H](CO)[C@H](O)C2=C1SC[C@]1(C[C@H](O)[C@H](O)[C@H]([C@H](O)CO)O1)O2`: in the assay on A-375 [1], the result was inactive. Further, the inhibition entry in the assay on A-375 [2] is “inactive”.

For the molecule `CC(C)(C)OC(=O)NCCN(CCC(=O)NCCN)CCC(=O)NCCN`, in the assay on A-375 [2], the inhibition entry was “inactive”.

The molecule `CCCOc1c2cc(CCCn3cc(CCO[C@H]4O[C@H](CO)[C@H](O)C5=C4SC[C@]4(C[C@@H](O)[C@@H](O)[C@@H]([C@H](O)CO)O4)O5)nn3)cc1Cc1cc(CCCn3cc(CCO[C@H]4O[C@H](CO)[C@H](O)C5=C4SC[C@]4(C[C@@H](O)[C@@H](O)[C@@H]([C@H](O)CO)O4)O5)nn3)cc(c1OCCC)Cc1cc(CCCn3cc(CCO[C@H]4O[C@H](CO)[C@H](O)C5=C4SC[C@]4(C[C@@H](O)[C@@H](O)[C@@H]([C@H](O)CO)O4)O5)nn3)cc(c1OCCC)Cc1cc(CCCn3cc(CCO[C@H]4O[C@H](CO)[C@H](O)C5=C4SC[C@]4(C[C@@H](O)[C@@H](O)[C@@H]([C@H](O)CO)O4)O5)nn3)cc(c1OCCC)C2` came in with an Activity in the assay with A-375 [3] of 32%. Further, the inhibition entry in assay [4] is “Active”. The outcome in the assay on A-375 [1] was inactive. For the same molecule, the inhibition at 50 µM with A-375 [2] worked out at 33%; in the assay on A-375 [5], 60%.
